Measured values taken from ChEMBL document CHEMBL3232809, “Synthesis, antibiotic activity and structure-activity relationship study of some 3-enaminetetramic acids” (2014).
Converted amounts (≈) assume the structure as drawn.

Legend:
Format in all cases: functional
Staphylococcus aureus [1] = test: Antimicrobial activity against methicillin-sensitive Staphylococcus aureus ATCC 13709
Streptococcus pneumoniae [2] = test: Antimicrobial activity against erythromycin-susceptible Streptococcus pneumoniae ATCC 49619
Staphylococcus aureus [3] = test: Antimicrobial activity against vancomycin-susceptible Staphylococcus aureus ATCC 25923
Enterococcus faecium = test: Antimicrobial activity against vancomycin-resistant Enterococcus faecium
Escherichia coli [4] = test: Antimicrobial activity against Escherichia coli 49
Staphylococcus aureus [5] = test: Antimicrobial activity against Staphylococcus aureus Oxford
Streptococcus pneumoniae [6] = test: Antimicrobial activity against penicillin- and erythromycin-resistant Streptococcus pneumoniae in presence of 2.5% horse blood
Staphylococcus aureus [7] = test: Antimicrobial activity against methicillin-resistant Staphylococcus aureus
Pseudomonas aeruginosa = test: Antimicrobial activity against Pseudomonas aeruginosa ATCC 27853
Enterococcus faecalis = test: Antimicrobial activity against vancomycin-susceptible Enterococcus faecalis ATCC 29212
Haemophilus influenzae [8] = test: Antimicrobial activity against Haemophilus influenzae ATCC 31517 MMSA
Escherichia coli [9] = test: Antimicrobial activity against Escherichia coli ATCC 25922
Escherichia coli [10] = test: Antimicrobial activity against Escherichia coli 50
Streptococcus pneumoniae [11] = test: Antimicrobial activity against penicillin- and erythromycin-resistant Streptococcus pneumoniae
Haemophilus influenzae [12] = test: Antimicrobial activity against LS2 Efflux knock-out Haemophilus influenzae

Row | SMILES | MIC (Staphylococcus aureus [1]) | MIC (Streptococcus pneumoniae [2]) | MIC (Staphylococcus aureus [3]) | MIC (Enterococcus faecium) | MIC (Escherichia coli [4]) | MIC (Staphylococcus aureus [5]) | MIC (Streptococcus pneumoniae [6]) | MIC (Staphylococcus aureus [7]) | MIC (Pseudomonas aeruginosa) | MIC (Enterococcus faecalis) | MIC (Haemophilus influenzae [8]) | MIC (Escherichia coli [9]) | MIC (Escherichia coli [10]) | MIC (Streptococcus pneumoniae [11]) | MIC (Haemophilus influenzae [12])
1 | CCOC(=O)[C@]12CO[C@H](C(C)(C)C)N1C(=O)/C(=C(\C)NCCCN1CCOCC1)C2=O | > 32 µg/mL | > 32 µg/mL | > 32 µg/mL | > 32 µg/mL | > 32 µg/mL | > 32 µg/mL | > 32 µg/mL | > 32 µg/mL | > 32 µg/mL | > 32 µg/mL | > 32 µg/mL | > 32 µg/mL | > 32 µg/mL | > 32 µg/mL | > 32 µg/mL
2 | C/C(Nc1ccccc1)=C1\C(=O)N2[C@H](C(C)(C)C)OC[C@@]2(C)C1=O (racemic) | 64 µg/mL (≈ 195 µM) | 8 µg/mL (≈ 24.4 µM) | 64 µg/mL (≈ 195 µM) | 32 µg/mL (≈ 97.4 µM) | > 32 µg/mL | 64 µg/mL (≈ 195 µM) | 8 µg/mL | 64 µg/mL (≈ 195 µM) | > 32 µg/mL | 64 µg/mL (≈ 195 µM) | > 64 µg/mL | > 32 µg/mL | > 32 µg/mL | 8 µg/mL (≈ 24.4 µM) | 8 µg/mL (≈ 24.4 µM)
3 | CSCCC1C(=O)/C(=C(\CC23CC4CC(C)(CC(C)(C4)C2)C3)NCC(C)(C)CN(C)C)C(=O)N1C(C)=O (configuration not stated) | > 64 µg/mL | > 64 µg/mL | > 64 µg/mL | > 64 µg/mL | > 32 µg/mL | > 64 µg/mL | > 64 µg/mL | > 64 µg/mL | > 32 µg/mL | > 64 µg/mL | > 64 µg/mL | > 32 µg/mL | > 32 µg/mL | > 64 µg/mL | 4 µg/mL (≈ 7.52 µM)
4 | CCCCCCC(=O)N1CC(=O)/C(=C(\CCCOc2ccccc2)NCCCOC(C)C)C1=O | > 32 µg/mL | > 32 µg/mL | > 32 µg/mL | > 32 µg/mL | > 32 µg/mL | > 32 µg/mL | > 32 µg/mL | > 32 µg/mL | > 32 µg/mL | > 32 µg/mL | > 32 µg/mL | > 32 µg/mL | > 32 µg/mL | > 32 µg/mL | > 32 µg/mL
5 | CCCCCCC/C=C/C(=O)N1C(=O)/C(=C(\C)Nc2ccc(N3CCOCC3)cc2)C(=O)C1CC(C)C (configuration not stated) | > 32 µg/mL | > 32 µg/mL | > 32 µg/mL | > 32 µg/mL | > 32 µg/mL | > 32 µg/mL | > 32 µg/mL | > 32 µg/mL | > 32 µg/mL | > 32 µg/mL | > 32 µg/mL | > 32 µg/mL | > 32 µg/mL | > 32 µg/mL | > 32 µg/mL
6 | CCCCCCN1CC(=O)/C(=C(/NC2CCCCC2)C2CCCCC2)C1=O | > 64 µg/mL | 2 µg/mL (≈ 5.34 µM) | > 64 µg/mL | > 64 µg/mL | > 32 µg/mL | > 64 µg/mL | 64 µg/mL | > 64 µg/mL | > 32 µg/mL | > 64 µg/mL | > 64 µg/mL | > 32 µg/mL | > 32 µg/mL | 2 µg/mL (≈ 5.34 µM) | > 64 µg/mL
7 | COC(=O)[C@@]12CO[C@@H](C(C)(C)C)N1C(=O)/C(=C(\C)NC13CC4CC(CC(C4)C1)C3)C2=O | > 64 µg/mL | > 64 µg/mL | > 64 µg/mL | > 64 µg/mL | > 32 µg/mL | > 64 µg/mL | > 64 µg/mL | > 64 µg/mL | > 32 µg/mL | > 64 µg/mL | > 64 µg/mL | > 32 µg/mL | > 32 µg/mL | > 64 µg/mL | 16 µg/mL (≈ 37.2 µM)
8 | O=C1CNC(=O)/C1=C(\NCc1ccccc1)c1cccc2ccccc12 | > 32 µg/mL | > 32 µg/mL | > 32 µg/mL | > 32 µg/mL | > 32 µg/mL | > 32 µg/mL | > 32 µg/mL | > 32 µg/mL | > 32 µg/mL | > 32 µg/mL | > 32 µg/mL | > 32 µg/mL | > 32 µg/mL | > 32 µg/mL | > 32 µg/mL
9 | CCOC(=O)[C@]12CO[C@H](C(C)(C)C)N1C(=O)/C(=C(/CC13CC4CC(CC(C4)C1)C3)NC(C)CCCN(CC)CC)C2=O (some centres not stated) | 32 µg/mL (≈ 54.6 µM) | 32 µg/mL (≈ 54.6 µM) | 64 µg/mL (≈ 109 µM) | 32 µg/mL (≈ 54.6 µM) | > 32 µg/mL | 32 µg/mL (≈ 54.6 µM) | 32 µg/mL | 64 µg/mL (≈ 109 µM) | > 32 µg/mL | 32 µg/mL (≈ 54.6 µM) | > 64 µg/mL | > 32 µg/mL | > 32 µg/mL | 16 µg/mL (≈ 27.3 µM) | 16 µg/mL (≈ 27.3 µM)
10 | COCCOC(=O)[C@]12CO[C@H](C(C)(C)C)N1C(=O)/C(=C(\C)NCCOc1ccccc1)C2=O | > 32 µg/mL | > 32 µg/mL | > 32 µg/mL | > 32 µg/mL | > 32 µg/mL | > 32 µg/mL | > 32 µg/mL | > 32 µg/mL | > 32 µg/mL | > 32 µg/mL | > 32 µg/mL | > 32 µg/mL | > 32 µg/mL | > 32 µg/mL | > 32 µg/mL
11 | CCCCCCCCCCC/C(NCCCOC(C)C)=C1\C(=O)CNC1=O | 16 µg/mL (≈ 42 µM) | 4 µg/mL (≈ 10.5 µM) | > 64 µg/mL | 8 µg/mL (≈ 21 µM) | > 32 µg/mL | 16 µg/mL (≈ 42 µM) | 32 µg/mL | 64 µg/mL (≈ 168 µM) | > 32 µg/mL | 16 µg/mL (≈ 42 µM) | > 64 µg/mL | > 32 µg/mL | > 32 µg/mL | 4 µg/mL (≈ 10.5 µM) | 2 µg/mL (≈ 5.26 µM)
12 | CCOC(=O)[C@]12CO[C@H](C(C)(C)C)N1C(=O)/C(=C(/CC13CC4CC(C)(CC(C)(C4)C1)C3)NC(C)CCCN(CC)CC)C2=O (some centres not stated) | > 32 µg/mL | > 32 µg/mL | > 32 µg/mL | > 32 µg/mL | > 32 µg/mL | > 32 µg/mL | > 32 µg/mL | > 32 µg/mL | > 32 µg/mL | > 32 µg/mL | > 32 µg/mL | > 32 µg/mL | > 32 µg/mL | > 32 µg/mL | > 32 µg/mL
13 | CCOC(=O)[C@]12CO[C@H](C(C)(C)C)N1C(=O)/C(=C(/CC(F)(F)C(F)(F)C(F)(F)C(F)(F)C(F)(F)F)NCCCN1CCOCC1)C2=O | 32 µg/mL (≈ 45.4 µM) | 16 µg/mL (≈ 22.7 µM) | 16 µg/mL (≈ 22.7 µM) | 16 µg/mL (≈ 22.7 µM) | > 32 µg/mL | 16 µg/mL (≈ 22.7 µM) | 16 µg/mL | 32 µg/mL (≈ 45.4 µM) | > 32 µg/mL | 32 µg/mL (≈ 45.4 µM) | > 64 µg/mL | > 32 µg/mL | > 32 µg/mL | 8 µg/mL (≈ 11.3 µM) | 8 µg/mL (≈ 11.3 µM)
14 | CCCCCCCCC/C(=C1\C(=O)CNC1=O)N1CCCCC1 | 16 µg/mL (≈ 49.9 µM) | > 64 µg/mL | 16 µg/mL (≈ 49.9 µM) | 8 µg/mL (≈ 25 µM) | > 32 µg/mL | 16 µg/mL (≈ 49.9 µM) | 16 µg/mL | 16 µg/mL (≈ 49.9 µM) | > 32 µg/mL | 16 µg/mL (≈ 49.9 µM) | 64 µg/mL (≈ 200 µM) | > 32 µg/mL | > 32 µg/mL | 16 µg/mL (≈ 49.9 µM) | > 64 µg/mL
15 | O=C(O)c1cn(C2CC2)c2cc(N3CCNCC3)c(F)cc2c1=O [CIPROFLOXACIN] | 0.12 µg/mL (≈ 0.362 µM) | 1 µg/mL (≈ 3.02 µM) | 0.5 µg/mL (≈ 1.51 µM) | 32 µg/mL (≈ 96.6 µM) |  | 0.12 µg/mL (≈ 0.362 µM) | 1 µg/mL |  |  | 1 µg/mL (≈ 3.02 µM) | 0.5 µg/mL (≈ 1.51 µM) |  |  | 1 µg/mL (≈ 3.02 µM) | ≤ 0.06 µg/mL
16 | C/C(NCCOc1ccccc1Cl)=C1/C(=O)CN(C(=O)OC(C)(C)C)C1=O |  | > 64 µg/mL | > 64 µg/mL | > 64 µg/mL | > 32 µg/mL | > 64 µg/mL | > 64 µg/mL | > 64 µg/mL | > 32 µg/mL | > 64 µg/mL | > 64 µg/mL | > 32 µg/mL | > 32 µg/mL | > 64 µg/mL | 32 µg/mL (≈ 81 µM)
17 | CC(=O)NC[C@H]1CN(c2ccc(N3CCOCC3)c(F)c2)C(=O)O1 [LINEZOLID] |  |  |  | 2 µg/mL (≈ 5.93 µM) |  |  |  |  |  |  | 16 µg/mL (≈ 47.4 µM) |  |  |  | 4 µg/mL (≈ 11.9 µM)
